Laboratory results reported in patent US20260212953A1, “An Integrative Framework to Identify Therapeutic Molecules for Treating Preterm Birth” (The Regents of the University of California, priority 2023, published 2026).
Entries after “also recorded” stand apart in the source; their conditions may differ.

Assays:
[1] = system: preterm birth; conditions: daily low-dose; women of their first pregnancies; cited from earlier work
[2] = system: primary human uterine smooth muscle cells (HUtSMC); assay: Collagen gel contraction assay; format: cell-based; conditions: for reduction of oxytocin-induced myometrial contractility: on average over the four named pre-clinical drugs; for effect on HUtSMC contraction, contractile state stimulated by oxytocin: 100 nM oxytocin, OXY+DMSO as control; for effect on HUtSMC contraction, quiescent state: PBS+DMSO as control
Text: We performed experiments to determine the functional roles of the small molecules in regulating labor timing. Because labor onset is hallmarked by muscle contraction in the uterus, we asked whether these small molecules could alter smooth muscle contraction in the uterus. We performed collagen gel contraction assays on primary human uterine smooth muscle cells (HUtSMC) (Ying et al., 2015) to examine the modes of action of the top 9 candidate drugs from our prediction (FIG. 5D). For each drug, we tested its effect on modulating HUtSMC contractility in stimulated (by oxytocin to mimic labor-like phenotypes) and quiescent states by treating cells with oxytocin and vehicle, respectively. In either condition, we determined the pharmacological effects of our identified compounds on cellular contraction (each with at least 8 replicates).
Primary Human Uterine Smooth Muscle Cells (HUISMC) were purchased from PromoCells (Cat #C-12575, Fisher Scientific, MA). Collagen gel contraction assays were performed following (Kita et al., 2008; Ying et al., 2015) with modifications. Briefly, 150 ul of collagen (Cat #5074, SigmaAldrich) was added to each well in a 48-well plate. 80,000 HUtSMC suspension in 300 ul Smooth Muscle Cell Growth Basal Medium (Lonza #CC-3181) were seeded to each well after collagen polymerization for an hour. The cells were then treated with either testing compounds or DMSO in the presence of 100 nM oxytocin or PBS control. We carefully detached the collagen from the wells by tips after 1 hour incubation at 37° C., and fixed the cells with 4% paraformaldehyde in PBS for 30 minutes after 18 hours to ensure the equivalent culture durations for all groups before imaging. We captured bright-field images with microscope systems (AmScope, Irvine, CA), and measured the gel diameters in the captured images by ImageJ where the fold changes to no cell control were taken for statistical analysis. At least three biological replicates were performed for each compound, and technically triplicates were included in each biological replicate. Information about small molecules in the study could be found in Table 4.

[3] = system: preterm labor; conditions: chronic treatment; cited from earlier work
[4] = system: HUtSMCs; assay: Cell viability of HUtSMCs treated with different concentrations of RKI-1447; format: cell-based, human
Text: These experimental data provided quantitative guidance on its potential clinical deployment. […] As a potent inhibitor of the Rho-kinases ROCKI/II, RKI-1447 has been mainly investigated for therapeutic effects on cancer (Dyberg et al., 2019; Li et al., 2020; Patel et al., 2012), glaucoma (Cush et al., 1995), and nonalcoholic fatty liver disease (Wang and Jiang, 2020), with less focus on putative effects on modulating uterine contractility. […] These observations provided mechanistic basis for our drug discovery and experimental observations (FIGS. 5E and 5F).

[5] = system: uterine contractility; conditions: in vivo; cited from earlier work
[6] = system: smooth muscle cells in other organs; conditions: literature curation; cited from earlier work
[7] = system: primary myometrial cell cultures; assay: RNA-Seq of primary myometrial cell cultures treated with FSK or IL-1B (Stanfield et al., 2019a); format: cell-based, human; conditions: published RNA-Seq data re-examined; P=0.68
Text: Performing functional enrichment analysis, we observed that the 69 Group I genes were highly enriched for functions associated with the regulation of muscle contraction (FDR=8.10e-4), more specifically with relaxation of muscle (FDR=2.71e-3, FIG. 3H). This explained their elevated expression prior to labor as well as their down-regulation upon delivery to promote muscle contractility.
Note that inflammatory factors are known to promote muscle contractility during labor (Khanjani et al., 2011; Mendelson et al., 2019), explaining the down-regulation of Group II genes before labor and their activation during labor. We examined primary myometrial cell cultures treated with IL-1B to mimic tissue-level inflammation at the labor onset (Stanfield et al., 2019a). […] In fact, Group-II genes included a key inflammatory activators AP-1 (with its subunits JUN and FOS), which play a central role in regulating smooth muscle contractility proteins at labor onset (Mendelson et al., 2019).
We downloaded normalized FPKM gene expression matrix of RNA-seq data (GSE134896 and GSE163773) (Ackerman et al., 2021; Stanfield et al., 2019a) from GEO for primary myometrial cell cultures following treatment with Forskolin and Interleukin-1B, and for primary myometrium samples harvested from 31 women at labor. […]

[8] = system: recurrent preterm labor; assay: Weekly 17-OHPC injections in women with previous spontaneous preterm labor (longitudinal cohort); format: in vivo, human; conditions: number among 48 study participants; 250 mg weekly i.m., 16 to 36 weeks of gestation
Experimental: We performed a longitudinal patient recruitment in Alabama. The study involved 48 study participants who had previous history of spontaneous preterm labor (Supplementary Table 5 for patient information). All women admitted to the study were with singleton pregnancy and received weekly intramuscular injections of Makena 17-OHPC 250 mg beginning at 16 weeks until 36 weeks of gestation. Among the 48 study participants, 28 were considered responders to the treatment and delivered at term, whereas the remaining 20 were considered non-responders and had spontaneous preterm birth after the treatment. We acknowledged the possibility that those considered to be responders might include individuals who delivered at term owing to other reasons and not affected by the treatment. However, if we could observe genetic factors indeed differentiating the two groups, especially those involved in progesterone signaling, the observation then should be explained by progestin treatment.
We performed longitudinal recruitment of 48 women in Alabama who had previous history of spontaneous preterm labor. All women admitted to the study were with singleton pregnancy and received weekly intramuscular injections of Makena OHP 250 mg beginning at 16 weeks until 36 weeks of gestation. This study was approved by Stanford Institutional Review Board (IRB #21956). […]

For `CC(=O)Oc1ccccc1C(=O)O` [aspirin], the “reduction of the risk of early preterm birth (before 34 gestational weeks)” value [1] is listed as 25% and the “reduction of the risk of preterm birth (before 37 gestational weeks)” value [1] is listed as 11%.
In the case of `N#CC(=C(/N)Sc1ccccc1N)/C(C#N)=C(\N)Sc1ccccc1N` [U0126], the “effect on myometrial cell contractility in either quiescent or contractile state” value [2] is given as “absence of signal” and the “efficacy in a rat model of preterm labor” value [3] is given as “demonstrated efficacy”.
In the case of `O=c1cc(N2CCOCC2)oc2c(-c3ccccc3)cccc12` [LY294002], the “reduction of oxytocin-induced myometrial contractility” value [2] is reported as 15.73%.
For `CN1CCN(Cc2ccc(-c3cnc4[nH]cc(-c5ccc6[nH]ccc6c5)c4c3)cc2)CC1` [URMC-099], the “effect on HUtSMC contraction, contractile state stimulated by oxytocin” value (shortened to “effect on HUtSMC contraction … by oxytocin”) [2] was “attenuated myometrial contraction; also recorded: attenuated oxytocin-induced myometrial contractility”, the “effect on myometrial cell contractility in either quiescent or contractile state” value [2] was “altered myometrial contractility” and the “reduction of oxytocin-induced myometrial contractility” value [2] was 15.73%.
For `[H]/N=C(/N)SCCCn1cc(C2=C(c3cn(C)c4ccccc34)C(=O)NC2=O)c2ccccc21` [bisindolylmaleimide-ix], the “effect on HUtSMC contraction … by oxytocin” value [2] was “attenuated myometrial contraction; also recorded: attenuated oxytocin-induced myometrial contractility”, the “effect on myometrial cell contractility in either quiescent or contractile state” value [2] was “altered myometrial contractility” and the “reduction of oxytocin-induced myometrial contractility” value [2] was 15.73%.
For `Brc1c(Br)c(Br)c2[nH]nnc2c1Br` [4,5,6,7-tetrabromobenzotriazole], the “effect on HUtSMC contraction … by oxytocin” value [2] was “attenuated myometrial contraction”, the “effect on HUtSMC contraction … by oxytocin” value ([2]; listed as TBBt) was “attenuated oxytocin-induced myometrial contractility” and the “effect on myometrial cell contractility in either quiescent or contractile state” value [2] was “altered myometrial contractility”. For the same compound, the “reduction of oxytocin-induced myometrial contractility” value [2] was 15.73%.
In the case of `O=C(NCc1cccc(O)c1)Nc1nc(-c2ccncc2)cs1` [RKI-1447], the “dose-response relationship on myometrial smooth muscle relaxation” value ([2]; 0 to 10 μM, quiescent (PBS) and contractile (OXY) states) is reported as “dose-dependent effects on myometrial smooth muscle relaxation”, the “effect on HUtSMC contraction … by oxytocin” value [2] is reported as “attenuated myometrial contraction; also recorded: attenuated oxytocin-induced myometrial contractility” and the “effect on myometrial cell contractility in the presence and absence of oxytocin” value ([2]; both states) is reported as “the only drug to prevent myometrial cell contractility in the presence and absence of oxytocin”. For the same compound, the “effect on myometrial cell contractility in either quiescent or contractile state” value [2] was “altered myometrial contractility”, the “effect on HUtSMC contraction, quiescent state” value [2] was “strongly reduced the contraction” and the “concentration at emergence of cellular toxicity” value ([4]; HUtSMCs) was 50 µM. The “effect on cell viability” value ([4]; over a wide dose-range) was “little effect on cell viability”, the “effect on uterine contractility in rats” value [5] was “attenuated uterine contractility” and the “side effects on smooth muscle cells in other organs, particularly cardiotoxicity” value [6] was “minimal effects”.
In the case of `COc1cccc(-c2cc(=O)c3ccccc3o2)c1N` [PD-98059], the “effect on myometrial cell contractility in either quiescent or contractile state” value [2] is given as “absence of signal” and the “efficacy in a rat model of preterm labor” value [3] is given as “demonstrated efficacy”.
For “IL-1B: cytokine used to mimic tissue-level inflammation at the labor onset”, the “response of Group II genes to treatment” value [7] was “overall not responsive”.
For `CCCCCC(=O)O[C@]1(C(C)=O)CC[C@H]2[C@@H]3CCC4=CC(=O)CC[C@]4(C)[C@H]3CC[C@@]21C` [17-OHPC, 17-hydroxyprogesterone caproate], the “non-responders (spontaneous preterm birth after the treatment)” value [8] was 20 and the “responders (delivered at term)” value [8] was 28.
For `C[S+]([O-])c1ccc(-c2nc(-c3ccncc3)c(-c3ccc(F)cc3)[nH]2)cc1` (centres unmarked) [SB-203580], the “effect on HUtSMC contraction … by oxytocin” value [2] was “increased the contraction”, the “effect on myometrial cell contractility in either quiescent or contractile state” value [2] was “altered myometrial contractility” and the “effect on HUtSMC contraction, quiescent state” value [2] was “significantly induced myometrial cell contraction”.
